Data reported in ChEMBL document CHEMBL1147998, “Synthesis of pH-sensitive amphotericin B-poly(ethylene glycol) conjugates and study of their controlled release in vitro” (Bioorg Med Chem, 2007).

Assay: Toxicity in iv dosed NMRI mouse after 14 days
Type: organism-based
Details: in vivo

Q: With `C[C@@H]1[C@H](O)[C@@H](C)/C=C/C=C/C=C/C=C/C=C/C=C/C=C/[C@H](O[C@@H]2O[C@H](C)[C@@H](O)[C@H](N)[C@@H]2O)C[C@@H]2O[C@](O)(C[C@@H](O)C[C@@H](O)[C@H](O)CC[C@@H](O)C[C@@H](O)CC(=O)O[C@H]1C)C[C@H](O)[C@H]2C(=O)O` [AMPHOTERICIN B] as the compound, how does the LD50 at 336 h read?
A: 3.7 mg/kg
